Results as given in US20230391736A1, “3-TETRAZOLYLMETHYL-1,3,5-TRIAZIN-2,4-DIONE COMPOUND INHIBITING CORONAVIRUS 3CL PROTEASE ACTIVITY AND PREPARATION METHOD AND USE THEREOF” (priority 2022, published 2023).
pIC50: −log10 of the molar value. Read-outs that look alike come from different tables or passages of the source.

Legend:
HepG2 cells = assay: In-vitro cytotoxicity by the MTT method, HepG2 cells; conditions: 24 hrs
Procedure: (§1) The in-vitro cytotoxicity of Compounds 1, 12, and 17 was evaluated by the MTT method. HepG2, HEK293 and A549 cells in logarithmic growth phase were respectively trypsinized into a cell suspension. The cell density was adjusted to 5×10^4 cells/mL. 180 μL per well of the cell suspension was inoculated into a sterile 96-well plate at 37° C., and cultured in an incubator at 5% CO2 for 24 hrs. After the cells were attached to the bottom of the plate, 20 μL of the drug solutions over the concentration gradients were respectively added into each well, and 6 replicate wells were set in parallel. Also, a blank group (group without cells and drug) and a control group (group without drug) were set. The system was incubated in an incubator at 37° C. and 5% CO2 for 24 hrs, and then 20 μL per well of a 5 g/L MTT solution was added and incubated for another 4 hrs. After the incubation was completed, the culture medium in the well was gently aspirated, and 100 μL of DMSO was added to each well. Then the crystal was fully dissolved in a shaker for 10 min at a low speed. After that, the absorbency of each well was measured at OD490 nm in an enzymelinked immunodetector, and the survival rate of cells was calculated.

SARS-CoV-2 3CL^pro = SARS-CoV-2 3CL^pro (Severe acute respiratory syndrome coronavirus 2 (2019-nCoV) (SARS-CoV-2), UniProt P0DTD1); assay: biochemical; conditions: for IC50 / pIC50: FRET; for IC50: class symbols, read-out: IC50 (nM), inhibitory activity against 3CL^pro; for pIC50: non-linear regression, read-out: IC50 against 3CL^pro
A549 cells = assay: In-vitro cytotoxicity by the MTT method, A549 cells; conditions: 24 hrs
Procedure: as §1

HEK293 cells = assay: In-vitro cytotoxicity by the MTT method, HEK293 cells; conditions: 24 hrs
Procedure: as §1

CCn1nnnc1Cn1c(=O)[nH]/c(=N\c2cc3cn(C)nc3cc2Cl)n(Cc2cc(F)c(F)cc2F)c1=O [Compound 17]
Survival rate of HepG2 cells (HepG2 cells; 1.5625 nM): 95.56% | Survival rate of HepG2 cells (HepG2 cells; 3.125 nM): 95.79% | Survival rate of HepG2 cells (HepG2 cells; 6.25 nM): 94.43% | Survival rate of HepG2 cells (HepG2 cells; 12.5 nM): 91.02% | Survival rate of HepG2 cells (HepG2 cells; 25 nM): 90.46% | Survival rate of HepG2 cells (HepG2 cells; 50 nM): 87.13% | Survival rate of HepG2 cells (HepG2 cells; 100 nM): 83.85% | Survival rate of HepG2 cells (HepG2 cells; 200 nM): 80.42% | Survival rate of HepG2 cells (HepG2 cells; 400 nM): 76.13% | IC50 (SARS-CoV-2 3CL^pro): < 200 nM | pIC50 (SARS-CoV-2 3CL^pro): 6.80 | inhibition percentage of 3CL^pro (SARS-CoV-2 3CL^pro; concentration 0.1 nM): 0.76% | inhibition percentage of 3CL^pro (SARS-CoV-2 3CL^pro; concentration 1 nM): 1.93% | inhibition percentage of 3CL^pro (SARS-CoV-2 3CL^pro; concentration 5 nM): 6.21% | inhibition percentage of 3CL^pro (SARS-CoV-2 3CL^pro; concentration 10 nM): 7.67% | inhibition percentage of 3CL^pro (SARS-CoV-2 3CL^pro; concentration 20 nM): 12.76% | inhibition percentage of 3CL^pro (SARS-CoV-2 3CL^pro; concentration 30 nM): 17.92% | inhibition percentage of 3CL^pro (SARS-CoV-2 3CL^pro; concentration 50 nM): 25.23% | inhibition percentage of 3CL^pro (SARS-CoV-2 3CL^pro; concentration 100 nM): 44.76% | inhibition percentage of 3CL^pro (SARS-CoV-2 3CL^pro; concentration 500 nM): 68.52% | inhibition percentage of 3CL^pro (SARS-CoV-2 3CL^pro; concentration 1000 nM): 85.36% | Survival rate of A549 cells (A549 cells; 1.5625 nM): 98.02% | Survival rate of A549 cells (A549 cells; 3.125 nM): 97.96% | Survival rate of A549 cells (A549 cells; 6.25 nM): 97.24% | Survival rate of A549 cells (A549 cells; 12.5 nM): 96.38% | Survival rate of A549 cells (A549 cells; 25 nM): 95.77% | Survival rate of A549 cells (A549 cells; 50 nM): 94.13% | Survival rate of A549 cells (A549 cells; 100 nM): 94.21% | Survival rate of A549 cells (A549 cells; 200 nM): 93.31% | Survival rate of A549 cells (A549 cells; 400 nM): 91.33% | Survival rate of HEK293 cells (HEK293 cells; 1.5625 nM): 93.79% | Survival rate of HEK293 cells (HEK293 cells; 3.125 nM): 93.12% | Survival rate of HEK293 cells (HEK293 cells; 6.25 nM): 93.48% | Survival rate of HEK293 cells (HEK293 cells; 12.5 nM): 90.79% | Survival rate of HEK293 cells (HEK293 cells; 25 nM): 85.73% | Survival rate of HEK293 cells (HEK293 cells; 50 nM): 84.32% | Survival rate of HEK293 cells (HEK293 cells; 100 nM): 83.83% | Survival rate of HEK293 cells (HEK293 cells; 200 nM): 79.45% | Survival rate of HEK293 cells (HEK293 cells; 400 nM): 78.03%

Cn1cc2cc(/N=c3\[nH]c(=O)n(Cc4nnn[nH]4)c(=O)n3Cc3ccc(F)cc3)c(Cl)cc2n1 [Compound 12]
Survival rate of HepG2 cells (HepG2 cells; 1.5625 nM): 96.16% | Survival rate of HepG2 cells (HepG2 cells; 3.125 nM): 94.78% | Survival rate of HepG2 cells (HepG2 cells; 6.25 nM): 93.92% | Survival rate of HepG2 cells (HepG2 cells; 12.5 nM): 91.45% | Survival rate of HepG2 cells (HepG2 cells; 25 nM): 88.16% | Survival rate of HepG2 cells (HepG2 cells; 50 nM): 87.52% | Survival rate of HepG2 cells (HepG2 cells; 100 nM): 83.43% | Survival rate of HepG2 cells (HepG2 cells; 200 nM): 82.56% | Survival rate of HepG2 cells (HepG2 cells; 400 nM): 77.32% | IC50 (SARS-CoV-2 3CL^pro): < 200 nM | pIC50 (SARS-CoV-2 3CL^pro): 6.74 | inhibition at 0.0001 µM (SARS-CoV-2 3CL^pro; concentration 0.1 nM, read-out: inhibition percentage of 3CL^pro): 0.52% | inhibition at 0.001 µM (SARS-CoV-2 3CL^pro; concentration 1 nM, read-out: inhibition percentage of 3CL^pro): 1.86% | inhibition at 0.005 µM (SARS-CoV-2 3CL^pro; concentration 5 nM, read-out: inhibition percentage of 3CL^pro): 4.98% | inhibition at 0.01 µM (SARS-CoV-2 3CL^pro; concentration 10 nM, read-out: inhibition percentage of 3CL^pro): 7.28% | inhibition at 0.02 µM (SARS-CoV-2 3CL^pro; concentration 20 nM, read-out: inhibition percentage of 3CL^pro): 9.3% | inhibition at 0.03 µM (SARS-CoV-2 3CL^pro; concentration 30 nM, read-out: inhibition percentage of 3CL^pro): 12.3% | inhibition at 0.05 µM (SARS-CoV-2 3CL^pro; concentration 50 nM, read-out: inhibition percentage of 3CL^pro): 18.8% | inhibition at 0.1 µM (SARS-CoV-2 3CL^pro; concentration 100 nM, read-out: inhibition percentage of 3CL^pro): 40% | inhibition at 0.5 µM (SARS-CoV-2 3CL^pro; concentration 500 nM, read-out: inhibition percentage of 3CL^pro): 70.2% | inhibition at 1 µM (SARS-CoV-2 3CL^pro; concentration 1000 nM, read-out: inhibition percentage of 3CL^pro): 85.4% | Survival rate of A549 cells (A549 cells; 1.5625 nM): 98.43% | Survival rate of A549 cells (A549 cells; 3.125 nM): 96.76% | Survival rate of A549 cells (A549 cells; 6.25 nM): 96.86% | Survival rate of A549 cells (A549 cells; 12.5 nM): 96.42% | Survival rate of A549 cells (A549 cells; 25 nM): 95.19% | Survival rate of A549 cells (A549 cells; 50 nM): 93.96% | Survival rate of A549 cells (A549 cells; 100 nM): 93.51% | Survival rate of A549 cells (A549 cells; 200 nM): 92.13% | Survival rate of A549 cells (A549 cells; 400 nM): 89.12% | Survival rate of HEK293 cells (HEK293 cells; 1.5625 nM): 93.44% | Survival rate of HEK293 cells (HEK293 cells; 3.125 nM): 92.73% | Survival rate of HEK293 cells (HEK293 cells; 6.25 nM): 91.16% | Survival rate of HEK293 cells (HEK293 cells; 12.5 nM): 89.80% | Survival rate of HEK293 cells (HEK293 cells; 25 nM): 85.34% | Survival rate of HEK293 cells (HEK293 cells; 50 nM): 82.99% | Survival rate of HEK293 cells (HEK293 cells; 100 nM): 82.76% | Survival rate of HEK293 cells (HEK293 cells; 200 nM): 78.93% | Survival rate of HEK293 cells (HEK293 cells; 400 nM): 77.46%

Cn1cc2cc(/N=c3\[nH]c(=O)n(Cc4nnn[nH]4)c(=O)n3Cc3ccc(Br)cc3)c(Cl)cc2n1 [Compound 6]
IC50 (SARS-CoV-2 3CL^pro): 200 to 500 nM

Cn1cc2cc(/N=c3\[nH]c(=O)n(Cc4nnn[nH]4)c(=O)n3Cc3ccccc3)c(Cl)cc2n1 [Compound 2, (E)-3-((1H-tetrazol-5-yl)methyl)-1-benzyl-6-((6-chloro-2-methyl-2H-indazol-5-yl)imino)-1,3,5-triazin-2,4-dione]
IC50 (SARS-CoV-2 3CL^pro): 500 to 1000 nM

CCn1nnnc1Cn1c(=O)[nH]/c(=N\c2cc3cn(C)nc3cc2Cl)n(Cc2ccc(C(F)(F)F)cc2)c1=O [Compound 18]
IC50 (SARS-CoV-2 3CL^pro): 200 to 500 nM

Cn1cc2cc(/N=c3\[nH]c(=O)n(Cc4nnn[nH]4)c(=O)n3Cc3cc(F)cc(F)c3)c(Cl)cc2n1 [Compound 15]
IC50 (SARS-CoV-2 3CL^pro): < 200 nM | pIC50 (SARS-CoV-2 3CL^pro): > 6.70

COc1cc(Cn2c(=O)n(Cc3nnn[nH]3)c(=O)[nH]/c2=N\c2cc3cn(C)nc3cc2Cl)cc(OC)c1 [Compound 14]
IC50 (SARS-CoV-2 3CL^pro): 500 to 1000 nM

CCn1nnnc1Cn1c(=O)[nH]/c(=N\c2cc3cn(C)nc3cc2Cl)n(Cc2ccc(Cl)cc2)c1=O [Compound 20]
IC50 (SARS-CoV-2 3CL^pro): 200 to 500 nM

COc1ccc(Cn2c(=O)n(Cc3nnn[nH]3)c(=O)[nH]/c2=N\c2cc3cn(C)nc3cc2Cl)cc1 [Compound 10]
IC50 (SARS-CoV-2 3CL^pro): 200 to 500 nM

Cn1cc2cc(/N=c3\[nH]c(=O)n(Cc4nnn[nH]4)c(=O)n3Cc3ccc(Cl)cc3)c(Cl)cc2n1 [Compound 5]
IC50 (SARS-CoV-2 3CL^pro): 200 to 500 nM

Cn1cc2cc(/N=c3\[nH]c(=O)n(Cc4nnnn4C4CC4)c(=O)n3Cc3cc(F)c(F)cc3F)c(Cl)cc2n1 [Compound 21]
IC50 (SARS-CoV-2 3CL^pro): 200 to 500 nM

CC(C)Cn1nnnc1Cn1c(=O)[nH]/c(=N\c2cc3cn(C)nc3cc2Cl)n(Cc2cc(F)c(F)cc2F)c1=O [Compound 24]
IC50 (SARS-CoV-2 3CL^pro): > 1000 nM
